Organism: Rattus norvegicus
Test: Open TG-GATES - Regimen: Single
Assay type: toxicity, organism-based, Sprague-Dawley
Set-up: regimen Single, gender Male, age 6 weeks
Details: in vivo, po, 100 mg/kg, route gavage, dose level High; for APTT / Bas / Eos / Fbg / Hb / Ht / Lym / MCH / MCHC / MCV / Mono / Neu / PT / Plat / RBC / Ret / WBC: tissue Blood; for KIDNEY_L / KIDNEY_R / KIDNEY_TOTAL: tissue Kidney; for LIVER: tissue Liver; for A/G / ALP / ALT / AST / BUN / CRE / Ca / Cl / DBIL / GLC / IP / K / LDH / Na / PL / RALB / TBIL / TC / TG / TP / gamma-GTP: tissue Plasma

Work on `CCN(CC)N=O` [N-NITROSODIETHYLAMINE] yielded a TERMINAL_BW (3 h) of 221.2 g, an APTT (3 h) of 19.4 s and a Bas (3 h) of 0%. For the same compound, the Eos (3 h) was 1%, the Fbg (3 h) was 208.2 mg/dL and the Hb (3 h) was 13.2 g/dL. The Ht (3 h) was 38.5%, the Lym (3 h) was 77.2% and the MCH (3 h) was 21.5 pg. The MCHC (3 h) was 34.2%, the MCV (3 h) was 62.7 fL and the Mono (3 h) was 1.4%. For the same compound, the Neu (3 h) was 19.2%, the PT (3 h) was 12 s and the Plat (3 h) was 113.8 x10_4/uL. The RBC (3 h) was 613.8 x10_4/ul, the Ret (3 h) was 7.2% and the WBC (3 h) was 60.2 x10_2/uL. The KIDNEY_L (3 h) was 1 g, the KIDNEY_R (3 h) was 1 g and the KIDNEY_TOTAL (3 h) was 2 g. It also gave an LIVER (3 h) of 9 g, an A/G (3 h) of 1.7 and an ALP (3 h) of 781 IU/L. The ALT (3 h) was 39.6 IU/L, the AST (3 h) was 73.6 IU/L and the BUN (3 h) was 9.8 mg/dL. The CRE (3 h) was 0.4 mg/dL, the Ca (3 h) was 10.2 mg/dL and the Cl (3 h) was 102.2 meq/L. The DBIL (3 h) was 0.056 mg/dL, the GLC (3 h) was 191 mg/dL and the IP (3 h) was 8.5 mg/dL. The K (3 h) was 3.5 meq/L, the LDH (3 h) was 162 IU/L and the Na (3 h) was 140.8 meq/L. For the same compound, the PL (3 h) was 124.8 mg/dL, the RALB (3 h) was 3.4 g/dL and the TBIL (3 h) was 0.1 mg/dL. The TC (3 h) was 85 mg/dL, the TG (3 h) was 24.2 mg/dL and the TP (3 h) was 5.5 g/dL. The gamma-GTP (3 h) was 1.2 IU/L, the TERMINAL_BW (6 h) was 218 g and the APTT (6 h) was 18.8 s. For the same compound, the Bas (6 h) was 0.4%, the Eos (6 h) was 0.8% and the Fbg (6 h) was 214.6 mg/dL. The Hb (6 h) was 13.2 g/dL, the Ht (6 h) was 38.2% and the Lym (6 h) was 80.2%. For the same compound, the MCH (6 h) was 21.2 pg, the MCHC (6 h) was 34.6% and the MCV (6 h) was 61.4 fL. The Mono (6 h) was 2%, the Neu (6 h) was 16% and the PT (6 h) was 12.7 s. For the same compound, the Plat (6 h) was 142.5 x10_4/uL, the RBC (6 h) was 623 x10_4/ul and the Ret (6 h) was 6.6%. It also gave a WBC (6 h) of 83.6 x10_2/uL, a KIDNEY_L (6 h) of 1 g and a KIDNEY_R (6 h) of 1 g. It also gave a KIDNEY_TOTAL (6 h) of 2 g, an LIVER (6 h) of 9.8 g and an A/G (6 h) of 1.6. It also gave an ALP (6 h) of 784.2 IU/L, an ALT (6 h) of 38.2 IU/L and an AST (6 h) of 73.4 IU/L. It also gave a BUN (6 h) of 12 mg/dL, a CRE (6 h) of 0.4 mg/dL and a Ca (6 h) of 10.2 mg/dL. For the same compound, the Cl (6 h) was 103.4 meq/L, the DBIL (6 h) was 0.068 mg/dL and the GLC (6 h) was 192.8 mg/dL. The IP (6 h) was 8.3 mg/dL, the K (6 h) was 3.5 meq/L and the LDH (6 h) was 207.8 IU/L. It also gave a Na (6 h) of 140.4 meq/L, a PL (6 h) of 103.6 mg/dL and an RALB (6 h) of 3.4 g/dL. It also gave a TBIL (6 h) of 0.1 mg/dL, a TC (6 h) of 68.8 mg/dL and a TG (6 h) of 24 mg/dL. For the same compound, the TP (6 h) was 5.5 g/dL, the gamma-GTP (6 h) was 1.4 IU/L and the TERMINAL_BW (9 h) was 225.6 g. It also gave an APTT (9 h) of 19.6 s, a Bas (9 h) of 0.6% and an Eos (9 h) of 1%. It also gave a Fbg (9 h) of 226.6 mg/dL, a Hb (9 h) of 13.7 g/dL and a Ht (9 h) of 39.4%. For the same compound, the Lym (9 h) was 71.6%, the MCH (9 h) was 21.4 pg and the MCHC (9 h) was 34.9%. For the same compound, the MCV (9 h) was 61.4 fL, the Mono (9 h) was 5% and the Neu (9 h) was 20.4%. The PT (9 h) was 13.8 s, the Plat (9 h) was 122.7 x10_4/uL and the RBC (9 h) was 642 x10_4/ul. It also gave a Ret (9 h) of 6.9%, a WBC (9 h) of 78.5 x10_2/uL and a KIDNEY_L (9 h) of 1 g. For the same compound, the KIDNEY_R (9 h) was 1 g, the KIDNEY_TOTAL (9 h) was 2 g and the LIVER (9 h) was 9.7 g. For the same compound, the A/G (9 h) was 1.6, the ALP (9 h) was 795 IU/L and the ALT (9 h) was 35.6 IU/L. It also gave an AST (9 h) of 87.8 IU/L, a BUN (9 h) of 14.2 mg/dL and a CRE (9 h) of 0.4 mg/dL. It also gave a Ca (9 h) of 10.3 mg/dL, a Cl (9 h) of 103.2 meq/L and a DBIL (9 h) of 0.064 mg/dL. For the same compound, the GLC (9 h) was 194.4 mg/dL, the IP (9 h) was 8.2 mg/dL and the K (9 h) was 3.7 meq/L. It also gave an LDH (9 h) of 267.2 IU/L, a Na (9 h) of 141.6 meq/L and a PL (9 h) of 110.4 mg/dL. The RALB (9 h) was 3.4 g/dL, the TBIL (9 h) was 0.1 mg/dL and the TC (9 h) was 73.4 mg/dL. For the same compound, the TG (9 h) was 28.2 mg/dL, the TP (9 h) was 5.5 g/dL and the gamma-GTP (9 h) was 1.6 IU/L. It also gave a TERMINAL_BW (24 h) of 216.1 g, an APTT (24 h) of 19 s and a Bas (24 h) of 0.8%. The Eos (24 h) was 1.2%, the Fbg (24 h) was 225.6 mg/dL and the Hb (24 h) was 15.1 g/dL. The Ht (24 h) was 44.4%, the Lym (24 h) was 72.4% and the MCH (24 h) was 21 pg. The MCHC (24 h) was 34%, the MCV (24 h) was 61.7 fL and the Mono (24 h) was 6%. It also gave a Neu (24 h) of 17.8%, a PT (24 h) of 17 s and a Plat (24 h) of 130.3 x10_4/uL. For the same compound, the RBC (24 h) was 720.2 x10_4/ul, the Ret (24 h) was 6.5% and the WBC (24 h) was 83.1 x10_2/uL. For the same compound, the KIDNEY_L (24 h) was 1 g, the KIDNEY_R (24 h) was 1 g and the KIDNEY_TOTAL (24 h) was 2 g. It also gave an LIVER (24 h) of 8.2 g, an A/G (24 h) of 1.7 and an ALP (24 h) of 955.6 IU/L. The ALT (24 h) was 56.2 IU/L, the AST (24 h) was 160 IU/L and the BUN (24 h) was 13.4 mg/dL. The CRE (24 h) was 0.4 mg/dL, the Ca (24 h) was 10.4 mg/dL and the Cl (24 h) was 104.2 meq/L. The DBIL (24 h) was 0.1 mg/dL, the GLC (24 h) was 179.6 mg/dL and the IP (24 h) was 8.4 mg/dL. For the same compound, the K (24 h) was 4.1 meq/L, the LDH (24 h) was 348.8 IU/L and the Na (24 h) was 140.6 meq/L. For the same compound, the PL (24 h) was 112.2 mg/dL, the RALB (24 h) was 3.3 g/dL and the TBIL (24 h) was 0.2 mg/dL. For the same compound, the TC (24 h) was 65.2 mg/dL, the TG (24 h) was 25.6 mg/dL and the TP (24 h) was 5.3 g/dL. The gamma-GTP (24 h) was 1.8 IU/L.
